Experimental data published in patent publication US12371430B2, “5-morpholin-4-yl-pyrazolo[4,3-b]pyridine derivatives” (Merck Patent GmbH, priority 2018, dated 2025).

Assays:
[1] = target: Kv11.1 (hERG) ion channel (Homo sapiens (Human), UniProt Q12809); assay: Kv11.1 (hERG) ion channel activity, whole cell patch clamp in HEK293; assay type: cell-based; details: for Ki: heading: hERG Ki, HEK293 cells stably expressing hERG, patch clamp
Description: Kv11.1 (hERG) Ion Channel Activity
In this assay, a potential in vitro effect of test compounds on the Kv11.1 (hERG) ion channel current is investigated which mediates the rapidly activating, delayed rectifier cardiac potassium current (IKr). The assay is performed with a stable Kv11.1 (hERG) transfected human embryonic kidney cell line (HEK293) by whole cell patch clamp technique carried out at room temperature.
The Kv11.1 (hERG) ion channel blocker quinidine is used as reference compound. The effects of the test compounds and quinidine are normalized to the corresponding vehicle control. The whole cell recordings are carried out with an automated patch clamp device Patchliner™, Nanion Technologies, Munich). Hereby the Patch Clamp measurements run on silicate-coated chips with a hole of a defined diameter. Solutions, cell suspension and compounds are applied by a Teflon-laminated pipette needle through microfluidic silicate-laminated channels. Commercial patch clamp amplifiers (EPC10, HEKA Elektronik Dr. Schulze GmbH, Germany) are used for the patch clamp recordings. HEK293 cells stably expressing the hERG gene are held at −80 mV. Steady-state inhibition of Kv11.1 (hERG) potassium current due to test/reference compound application is measured using a pulse pattern with fixed amplitudes: 51 ms/−80 mV, 500 ms/+40 mV, 500 ms/−40 mV, 200 ms/−80 mV. The hERG-specific voltage protocol is repeated at 10 s intervals. The leak current is subtracted by a P4 leak subtraction. Cells are resuspended in extracellular patch clamp solution (EC) and applied into the chip. After trapping the cell, the EC is exchanged by seal enhancer solution (SE) to improve the sealing procedure. When the whole cell configuration is attained, seal enhancer is washed out by the application of EC. The recording is started in EC for 1.5 min. Afterwards DMSO (vehicle control, 0.1% DMSO) is applied and the control current is measured for 3 min. Following control steady-state current, test compound is applied twice at the same concentration and the tail current is measured for 3.5 min each. For the determination of a concentration-relationship, the test compound is applied as a cumulative concentration-response curve and each concentration is measured for 5 min. The reference compound quinidine is treated in the same way. The effect on Kv11.1 (hERG) ion channel activity is judged from the tail current amplitude monitored at −40 mV (current of interest, COI). Results are calculated from the last recorded current traces. Changes in Kv11.1 (hERG) ion channel activity between control value, defined as 100% Kv11.1 (hERG) ion channel activity, application of test compound and application of quinidine is reported as percent change of control value of COI. An aliquot of test compound is collected for concentration verification during the recording. The sample is immediately measured by HPLC and the final compound concentration within the assay is calculated according to a calibration curve.

[2] = tested on: phosphorylation of Chk1 (Ser 345) in HT29 colon adenocarcinoma cells; assay: pCHK1 cellular assay; assay type: cell-based; details: Homo sapiens, HT-29, hydroxyurea 3 mM, 4 h
In short: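 HT29 cells plated ≥20 h, then compound (1 nM–30 μM final) with hydroxyurea (3 mM final) added together for 4 h at 37 °C. After MeOH/Triton fixation-permeabilisation, anti-pChk1 immunostaining plus nuclear stain; nuclear pChk1 imaged by confocal high content reader, reported as % positive nuclei.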

ATR/ATRIP = ATR/ATRIP (Homo sapiens (Human), UniProt Q13535); assay: ATR/ATRIP kinase assay (TR-FRET, p53 Ser15 phosphorylation); assay type: biochemical; details: 0.5 μM ATP, 50 nM p53
In short: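 Full-length human ATR/ATRIP co-expressed in mammalian cells (typically 0.3 nM) preincubated with compound 15 min at 22° C, then 50 nM cmyc-p53 and 0.5 μM ATP added for typically 25 min; HEPES pH 8.0 with Mg2+/Mn2+. p53 Ser15 phosphorylation read by HTRF (665/615 ratio); IC50 by nonlinear regression.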

Chain of Kv11.1 (hERG) ion channel (Q12809 whole entry): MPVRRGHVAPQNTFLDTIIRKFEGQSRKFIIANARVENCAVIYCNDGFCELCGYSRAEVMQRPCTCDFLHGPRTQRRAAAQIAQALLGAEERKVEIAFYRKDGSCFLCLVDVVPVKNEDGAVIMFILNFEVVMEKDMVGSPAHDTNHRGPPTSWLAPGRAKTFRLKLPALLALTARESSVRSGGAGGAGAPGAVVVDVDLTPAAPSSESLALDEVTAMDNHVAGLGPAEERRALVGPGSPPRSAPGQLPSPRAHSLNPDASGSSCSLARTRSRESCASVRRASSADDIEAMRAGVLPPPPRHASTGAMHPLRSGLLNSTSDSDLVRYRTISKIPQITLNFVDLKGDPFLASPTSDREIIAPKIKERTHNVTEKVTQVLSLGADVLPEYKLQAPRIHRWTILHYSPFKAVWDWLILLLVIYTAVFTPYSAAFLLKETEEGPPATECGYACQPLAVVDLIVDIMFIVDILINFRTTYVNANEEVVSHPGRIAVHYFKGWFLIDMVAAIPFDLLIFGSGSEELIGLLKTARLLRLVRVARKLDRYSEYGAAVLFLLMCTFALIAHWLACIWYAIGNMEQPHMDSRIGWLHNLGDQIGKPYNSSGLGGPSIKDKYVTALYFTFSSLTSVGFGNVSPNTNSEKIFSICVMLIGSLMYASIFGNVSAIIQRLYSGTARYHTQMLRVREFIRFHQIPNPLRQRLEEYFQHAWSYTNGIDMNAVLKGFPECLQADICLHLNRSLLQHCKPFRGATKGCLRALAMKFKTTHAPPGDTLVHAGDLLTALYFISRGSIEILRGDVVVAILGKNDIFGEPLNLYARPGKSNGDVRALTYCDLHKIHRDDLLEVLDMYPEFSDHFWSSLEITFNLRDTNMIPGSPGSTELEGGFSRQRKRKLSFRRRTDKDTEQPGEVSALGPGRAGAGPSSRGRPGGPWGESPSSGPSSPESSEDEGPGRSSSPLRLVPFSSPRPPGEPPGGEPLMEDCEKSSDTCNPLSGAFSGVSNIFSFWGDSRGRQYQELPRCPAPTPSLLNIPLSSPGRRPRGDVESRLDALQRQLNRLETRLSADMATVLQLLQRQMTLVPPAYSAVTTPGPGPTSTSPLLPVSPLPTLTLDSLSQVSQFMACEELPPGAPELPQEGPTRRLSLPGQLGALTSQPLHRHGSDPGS
Chain of ATR/ATRIP (Q13535 whole entry): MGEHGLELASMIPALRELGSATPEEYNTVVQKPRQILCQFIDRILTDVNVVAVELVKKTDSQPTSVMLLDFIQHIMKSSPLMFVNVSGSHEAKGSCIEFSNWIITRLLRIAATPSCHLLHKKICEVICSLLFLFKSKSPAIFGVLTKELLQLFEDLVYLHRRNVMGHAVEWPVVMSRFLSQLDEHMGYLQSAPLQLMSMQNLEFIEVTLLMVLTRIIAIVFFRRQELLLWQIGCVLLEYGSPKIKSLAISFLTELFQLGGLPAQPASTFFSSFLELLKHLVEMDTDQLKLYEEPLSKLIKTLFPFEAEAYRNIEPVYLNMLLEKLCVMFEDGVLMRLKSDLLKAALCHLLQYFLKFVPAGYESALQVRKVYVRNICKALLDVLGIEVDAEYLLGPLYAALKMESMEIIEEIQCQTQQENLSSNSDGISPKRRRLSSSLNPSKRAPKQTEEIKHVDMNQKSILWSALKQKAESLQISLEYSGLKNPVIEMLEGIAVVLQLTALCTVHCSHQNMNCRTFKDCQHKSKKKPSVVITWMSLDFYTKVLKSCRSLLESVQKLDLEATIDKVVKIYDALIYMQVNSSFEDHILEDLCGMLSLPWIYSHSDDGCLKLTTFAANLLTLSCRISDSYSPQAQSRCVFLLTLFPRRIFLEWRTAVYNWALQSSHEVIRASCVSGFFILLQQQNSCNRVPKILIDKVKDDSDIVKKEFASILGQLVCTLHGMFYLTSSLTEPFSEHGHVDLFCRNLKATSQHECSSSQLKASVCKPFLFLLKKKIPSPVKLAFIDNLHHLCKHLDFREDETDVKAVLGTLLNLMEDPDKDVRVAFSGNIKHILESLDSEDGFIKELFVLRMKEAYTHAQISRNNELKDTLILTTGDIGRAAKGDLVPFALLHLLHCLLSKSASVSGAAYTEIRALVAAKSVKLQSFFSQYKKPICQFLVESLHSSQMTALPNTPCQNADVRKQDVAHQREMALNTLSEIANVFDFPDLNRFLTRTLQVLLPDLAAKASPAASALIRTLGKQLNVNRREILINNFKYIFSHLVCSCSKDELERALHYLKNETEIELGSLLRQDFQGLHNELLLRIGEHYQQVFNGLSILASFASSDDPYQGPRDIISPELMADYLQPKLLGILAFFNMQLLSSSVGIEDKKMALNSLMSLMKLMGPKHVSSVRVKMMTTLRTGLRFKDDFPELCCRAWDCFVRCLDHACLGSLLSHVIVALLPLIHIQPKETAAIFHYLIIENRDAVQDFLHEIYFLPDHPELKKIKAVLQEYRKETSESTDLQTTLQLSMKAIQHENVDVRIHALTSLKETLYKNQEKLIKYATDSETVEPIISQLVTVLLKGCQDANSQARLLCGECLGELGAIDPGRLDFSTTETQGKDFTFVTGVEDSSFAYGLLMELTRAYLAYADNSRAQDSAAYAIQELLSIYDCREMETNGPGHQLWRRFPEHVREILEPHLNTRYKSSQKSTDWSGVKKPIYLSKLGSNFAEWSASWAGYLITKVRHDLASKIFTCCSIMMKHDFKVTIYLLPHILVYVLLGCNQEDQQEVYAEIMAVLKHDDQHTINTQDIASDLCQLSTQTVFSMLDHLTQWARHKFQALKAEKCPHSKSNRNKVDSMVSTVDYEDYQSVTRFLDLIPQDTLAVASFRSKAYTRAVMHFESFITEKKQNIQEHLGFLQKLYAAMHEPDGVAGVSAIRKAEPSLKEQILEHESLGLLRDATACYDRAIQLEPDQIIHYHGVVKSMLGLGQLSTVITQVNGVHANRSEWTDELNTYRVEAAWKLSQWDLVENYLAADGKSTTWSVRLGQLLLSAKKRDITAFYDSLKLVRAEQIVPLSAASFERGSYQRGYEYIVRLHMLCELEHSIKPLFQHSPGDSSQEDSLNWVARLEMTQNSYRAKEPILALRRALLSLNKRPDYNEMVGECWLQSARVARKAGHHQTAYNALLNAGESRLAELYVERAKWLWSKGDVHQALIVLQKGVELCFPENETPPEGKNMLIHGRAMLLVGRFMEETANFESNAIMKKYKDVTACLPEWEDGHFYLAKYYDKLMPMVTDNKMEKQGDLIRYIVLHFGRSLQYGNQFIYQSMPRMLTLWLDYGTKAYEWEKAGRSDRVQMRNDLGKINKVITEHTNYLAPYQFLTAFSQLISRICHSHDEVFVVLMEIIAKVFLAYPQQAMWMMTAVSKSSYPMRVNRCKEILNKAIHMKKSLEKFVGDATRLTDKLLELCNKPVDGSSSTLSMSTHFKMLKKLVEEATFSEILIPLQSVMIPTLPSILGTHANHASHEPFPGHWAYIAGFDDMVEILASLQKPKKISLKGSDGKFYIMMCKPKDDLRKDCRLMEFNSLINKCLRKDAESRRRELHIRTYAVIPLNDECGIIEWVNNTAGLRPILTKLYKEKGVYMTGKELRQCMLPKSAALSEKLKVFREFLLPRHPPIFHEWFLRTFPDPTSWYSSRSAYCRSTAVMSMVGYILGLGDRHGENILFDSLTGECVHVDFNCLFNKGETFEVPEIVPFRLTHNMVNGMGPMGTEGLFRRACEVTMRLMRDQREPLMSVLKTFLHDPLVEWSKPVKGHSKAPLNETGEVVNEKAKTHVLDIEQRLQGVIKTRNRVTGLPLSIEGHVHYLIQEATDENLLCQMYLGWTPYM
Chain of ATR/ATRIP (Q8WXE1 whole entry partner): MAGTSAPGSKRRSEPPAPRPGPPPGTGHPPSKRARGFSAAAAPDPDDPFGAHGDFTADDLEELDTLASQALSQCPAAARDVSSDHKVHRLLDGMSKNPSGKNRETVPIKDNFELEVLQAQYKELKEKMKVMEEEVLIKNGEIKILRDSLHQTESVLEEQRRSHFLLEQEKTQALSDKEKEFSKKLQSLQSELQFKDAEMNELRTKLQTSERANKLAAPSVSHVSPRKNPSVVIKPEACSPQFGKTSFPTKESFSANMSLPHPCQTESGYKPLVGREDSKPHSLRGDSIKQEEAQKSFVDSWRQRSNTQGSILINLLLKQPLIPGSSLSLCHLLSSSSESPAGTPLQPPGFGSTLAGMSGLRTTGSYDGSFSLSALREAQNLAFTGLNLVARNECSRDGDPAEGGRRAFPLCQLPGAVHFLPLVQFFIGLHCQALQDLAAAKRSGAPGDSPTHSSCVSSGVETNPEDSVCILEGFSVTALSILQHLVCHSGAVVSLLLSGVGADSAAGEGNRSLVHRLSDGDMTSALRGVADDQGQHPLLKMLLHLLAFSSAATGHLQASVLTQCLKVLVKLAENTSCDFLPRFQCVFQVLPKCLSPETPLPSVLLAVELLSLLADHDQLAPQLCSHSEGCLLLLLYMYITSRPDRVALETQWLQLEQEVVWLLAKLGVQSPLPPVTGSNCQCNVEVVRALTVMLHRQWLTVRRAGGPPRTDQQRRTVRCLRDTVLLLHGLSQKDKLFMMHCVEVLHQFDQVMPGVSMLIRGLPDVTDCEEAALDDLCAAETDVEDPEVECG

Row | IC50 [2] | IC50 (ATR/ATRIP) | Compound | hERG % effect @ conc ([1]; @ 10 μM) | Ki [1] | hERG % effect @ conc ([1]; @ 30 μM)
1 | 10 to 100 nM | – | C[C@@H]1COCCN1c1cc([C@@H]2CCOC2)c2c(n1)c(-c1ccn[nH]1)nn2C [Compound 71, 1-Methyl-5-((R)-3-methyl-morpholin-4-yl)-3-(2H-pyrazol-3-yl)-7-(S)-tetrahydro-furan-3-yl-1H-pyrazolo[4,3-b]pyridine] | −16% | > 10000 nM | –
2 | < 10 nM | 2.1 nM | Cc1nc([S+](C)[O-])ccc1-c1cc(N2CCOC[C@H]2C)nc2c(-c3cc[nH]n3)nn(C)c12 (stereo partly drawn) [Compound 8, 7-(6-Methanesulfinyl-2-methyl-pyridin-3-yl)-1-methyl-5-((R)-3-methyl-morpholin-4-yl)-3-(1H-pyrazol-3-yl)-1H-pyrazolo[4,3-b]pyridine] | −6% | > 10000 nM | –
3 | 10 to 100 nM | 0.9 nM | Cc1nc(S(C)(=O)=O)ccc1-c1cc(N2CCOC[C@H]2C)nc2c(-c3cc[nH]n3)nn(C)c12 [Compound 11, (3R)-4-[7-(6-Methanesulfonyl-2-methylpyridin-3-yl)-1-methyl-3-(1H-pyrazol-3-yl)-1H-pyrazolo[4,3-b]pyridin-5-yl]-3-methylmorpholine] | −5% | > 10000 nM | –
4 | 10 to 100 nM | 6.1 nM | C[C@@H]1COCCN1c1cc(-c2ccn(CCF)n2)c2c(n1)c(-c1cc[nH]n1)nn2C [Compound 34, 7-[1-(2-Fluoro-ethyl)-1H-pyrazol-3-yl]-1-methyl-5-((R)-3-methyl-morpholin-4-yl)-3-(1H-pyrazol-3-yl)-1H-pyrazolo[4,3-b]pyridine] | −1% | > 10000 nM | –
5 | 10 to 100 nM | 0.7 nM | C[C@@H]1COCCN1c1cc(C2CCOCC2)c2c(n1)c(-c1ccn[nH]1)nn2C [Compound 55, 1-Methyl-5-((R)-3-methyl-morpholin-4-yl)-3-(2H-pyrazol-3-yl)-7-(tetrahydro-pyran-4-yl)-1H-pyrazolo[4,3-b]pyridine] | −14% | > 10000 nM | –
6 | 10 to 100 nM | 3.6 nM | Cc1cc(S(C)(=O)=O)ncc1-c1cc(N2CCOC[C@H]2C)nc2c(-c3cc[nH]n3)nn(C)c12 [Compound 17, 7-(6-Methanesulfonyl-4-methyl-pyridin-3-yl)-1-methyl-5-((R)-3-methyl-morpholin-4-yl)-3-(1H-pyrazol-3-yl)-1H-pyrazolo[4,3-b]pyridine] | 5% | > 10000 nM | –
7 | 10 to 100 nM | 1.8 nM | Cc1ccccc1-c1cc(N2CCOC[C@H]2C)nc2c(-c3ccn[nH]3)nn(C)c12 [Compound 49, (3R)-3-Methyl-4-[1-methyl-7-(2-methylphenyl)-3-(1H-pyrazol-5-yl)-1H-pyrazolo[4,3-b]pyridin-5-yl]morpholine] | −18% | > 10000 nM | –
8 | 10 to 100 nM | 2 nM | C[C@@H]1COCCN1c1cc(-c2cccc(C#N)c2)c2c(n1)c(-c1cc[nH]n1)nn2C [Compound 48, 3-{1-Methyl-5-[(3R)-3-methylmorpholin-4-yl]-3-(1H-pyrazol-3-yl)-1H-pyrazolo[4,3-b]pyridin-7-yl}benzonitrile] | −32% | > 10000 nM | –
9 | 10 to 100 nM | 1.2 nM | C[C@@H]1COCCN1c1cc(-c2ccncc2F)c2c(n1)c(-c1cc[nH]n1)nn2C [Compound 20, 7-(3-Fluoro-pyridin-4-yl)-1-methyl-5-((R)-3-methyl-morpholin-4-yl)-3-(1H-pyrazol-3-yl)-1H-pyrazolo[4,3-b]pyridine] | −11% | > 10000 nM | –
10 | 10 to 100 nM | 0.8 nM | Cc1ccc(-c2cc(N3CCOC[C@H]3C)nc3c(-c4cc[nH]n4)n[nH]c23)cn1 [Compound 2, 5-((R)-3-Methyl-morpholin-4-yl)-7-(6-methyl-pyridin-3-yl)-3-(1H-pyrazol-3-yl)-1H-pyrazolo[4,3-b]pyridine] | −3% | > 10000 nM | –
11 | < 10 nM | 0.3 nM | C[C@@H]1COCCN1c1cc(-c2cncn2C)c2c(n1)c(-c1cc[nH]n1)nn2C [Compound 42, 1-Methyl-7-(3-methyl-3H-imidazol-4-yl)-5-((R)-3-methyl-morpholin-4-yl)-3-(1H-pyrazol-3-yl)-1H-pyrazolo[4,3-b]pyridine] | – | > 30000 nM | −26%
12 | 10 to 100 nM | – | C[C@@H]1COCCN1c1cc([C@H]2CCCOC2)c2c(n1)c(-c1ccn[nH]1)nn2C [Compound 68, 1-Methyl-5-((R)-3-methyl-morpholin-4-yl)-3-(2H-pyrazol-3-yl)-7-(R)-tetrahydro-pyran-3-yl-1H-pyrazolo[4,3-b]pyridine] | – | > 30000 nM | −35%
13 | 10 to 100 nM | – | C[C@@H]1COCCN1c1cc(-c2ccnn2C(F)F)c2c(n1)c(-c1ccn[nH]1)nn2C [Compound 78, (3R)-4-{7-[1-(Difluoromethyl)-1H-pyrazol-5-yl]-1-methyl-3-(1H-pyrazol-5-yl)-1H-pyrazolo[4,3-b]pyridin-5-yl}-3-methylmorpholine] | – | > 30000 nM | −12%
14 | 10 to 100 nM | – | C[C@@H]1COCCN1c1cc([C@@H]2CCCOC2)c2c(n1)c(-c1ccn[nH]1)nn2C [Compound 69, 1-Methyl-5-((R)-3-methyl-morpholin-4-yl)-3-(2H-pyrazol-3-yl)-7-(S)-tetrahydro-pyran-3-yl-1H-pyrazolo[4,3-b]pyridine] | – | > 30000 nM | −29%
15 | 1000 to 10000 nM | 150 nM | C[C@@H]1COCCN1c1ccc2c(n1)c(-c1cc[nH]n1)nn2Cc1cccc(S(C)(=O)=O)c1 [Compound 57, (3R)-4-{1-[(3-Methanesulfonylphenyl)methyl]-3-(1H-pyrazol-3-yl)-1H-pyrazolo[4,3-b]pyridin-5-yl}-3-methylmorpholine] | – | – | –
16 | 10 to 100 nM | 1 nM | Cc1cnccc1-c1cc(N2CCOC[C@H]2C)nc2c(-c3cc[nH]n3)nn(C)c12 [Compound 23, 1-Methyl-5-((R)-3-methyl-morpholin-4-yl)-7-(3-methyl-pyridin-4-yl)-3-(1H-pyrazol-3-yl)-1H-pyrazolo[4,3-b]pyridine] | – | – | –
17 | 1000 to 10000 nM | 21 nM | C[C@@H]1COCCN1c1ccc2c(n1)c(-c1ccn[nH]1)nn2Cc1ccccc1 [Compound 59, (3R)-4-[1-Benzyl-3-(1H-pyrazol-5-yl)-1H-pyrazolo[4,3-b]pyridin-5-yl]-3-methylmorpholine] | – | – | –
18 | 100 to 1000 nM | 16 nM | Cc1cccc(-c2cc(N3CCOC[C@H]3C)nc3c(-c4cc[nH]n4)nn(C)c23)n1 [Compound 33, 1-Methyl-5-((R)-3-methyl-morpholin-4-yl)-7-(6-methyl-pyridin-2-yl)-3-(1H-pyrazol-3-yl)-1H-pyrazolo[4,3-b]pyridine] | – | – | –
19 | 1000 to 10000 nM | 21 nM | C[C@@H]1COCCN1c1ccc2c(n1)c(-c1cc[nH]n1)nn2CC(C)(C)O [Compound 85, 2-Methyl-1-{5-[(3R)-3-methylmorpholin-4-yl]-3-(1H-pyrazol-3-yl)-1H-pyrazolo[4,3-b]pyridin-1-yl}propan-2-ol] | – | – | –
